The results in this text go back to US20130023002A1, “USE OF A SUBSTRATE IN A METHOD FOR MEASURING THE ACTIVITY OF AVAILABLE PROTEOLYTIC ENZYMES” (priority 2011, published 2013).

The subject of experiment [1] is low-molecular-weight heparin, Fragmine® (anti-Xa activity, factor Xa). Put plainly: Evaluation of neutralization of low-molecular-weight heparin by enzyme substrates (anti-Xa activity). In kind it is biochemical. The text has this: (§1) Before referring to the diagrams of the figures, the evaluation method used to quantify the neutralizing effect of the proteolytic enzyme substrates with respect to the glycosaminoglycans in a blood sample, and in particular a plasma, will be described. This evaluation method makes it possible to use both unfractionated heparins and low-molecular-weight heparins. In addition, the method endeavors to test the activity of factor Xa, located at the crossroads of two enzymatic cascades resulting in the formation of thrombin. Moreover, antithrombin, which is a natural inhibitor of thrombin generation, controls the reaction. As soon as it appears, factor Xa couples to its natural substrate, prothrombin, so as to form thrombin. The heparin contained in the sample forms, itself, a complex with antithrombin, which complex promotes the inhibition of factor Xa.
Thus, a chromogenic substrate based on para-nitroaniline, which factor Xa hydrolyzes, is used and the release of the para-nitroaniline, which can be measured optically, is then inversely proportional to the concentration of heparin present in the medium. A measurement of the anti-Xa activity is thus deduced therefrom.
More specifically, the percentage neutralization by the substrate is determined as being the ratio of the difference in the variation in anti-Xa activity in the medium containing the physiological saline and in the medium containing the substrate, between two heparin concentrations, and only the variation in activity in the medium containing the physiological saline, between the same two heparin concentrations, this ratio being multiplied by 100 in order to obtain the result as percentage neutralization.
The percentage neutralization can also be written more compactly: 100×(1−ΔA1/ΔA2), wherein ΔA1 corresponds to the variation in activity in the presence of substrate and ΔA2 to the variation in the presence of physiological saline. Thus, the parallel measurement of the variation in the presence of physiological saline makes it possible to establish the reference in each series of measurements.
Still in this first part of the description, the abovementioned evaluation method was implemented with a low-molecular-weight heparin, Fragmine®.
The results of the percentage neutralization of this heparin for the three substrate variants described above, V(1), V(2) and V(3), have been reported in the table below.

Experiment [2] has as its system unfractionated calcium heparin Calciparine® (anti-Xa activity, factor Xa). As to the kind of experiment: Evaluation of neutralization of unfractionated heparin by enzyme substrates (anti-Xa activity, para-nitroaniline chromogenic substrate). The conditions noted are these: FIG. 1, qualitative. Type of experiment: biochemical.
Excerpt: as §1
Thus, a chromogenic substrate based on para-nitroaniline, which factor Xa hydrolyzes, is used and the release of the para-nitroaniline, which can be measured optically, is then inversely proportional to the concentration of heparin present in the medium. […]
In this first example, the heparin used is an unfractionated calcium heparin sold under the brand name: “Calciparine®”. According to the evaluation method, the anti-Xa activity is recorded and transferred onto the y-axis, as a function of the heparin concentration of the medium. […]

Take EtM-VR-Rhod110-Ac [V(1)]: the percentage neutralization is listed as 10% in experiment [1] (Fragmine® 0.42 IU/ml), 12% in experiment [1] (Fragmine® 0.83 IU/ml), 13% in experiment [1] (Fragmine® 1.25 IU/ml) and 15% in experiment [1] (Fragmine® 1.67 IU/ml).

Turning to Z-GGR-AMC, the “effect of substrate with respect to heparin (curve compared with physiological saline)” value in experiment [2] is reported as “no notable effect with respect to heparin”.
